In the NIST ThermoML archive (doi:10.1021/je7007632):

Assays:
[1] = refractive index (Na D-line) (dimensionless); conditions: 101.33 kPa, Liquid, Standard Abbe refractometry
[2] = refractive index (Na D-line) (dimensionless); xn = mol fraction of the nth substance listed; conditions: 101 kPa, Liquid, Standard Abbe refractometry

CCC(C)O (stereo not given) [butan-2-ol]
[1]
Conditions	refractive index
293.15 K	1.3972
298.15 K	1.3951
303.15 K	1.3931
308.15 K	1.3911
313.15 K	1.3891
318.15 K	1.3871

CCC(C)O (stereo not given) [butan-2-ol] + NC=O
[2], x2 = 0
Conditions	refractive index
293.15 K	1.3972
298.15 K	1.3951
303.15 K	1.3931
308.15 K	1.3911
313.15 K	1.3891
318.15 K	1.3871

NC=O [formamide]
[1]
Conditions	refractive index
293.15 K	1.4475
298.15 K	1.4467
303.15 K	1.4459
308.15 K	1.4451
313.15 K	1.4442
318.15 K	1.4433

NC=O [formamide] + CC(O)CCO
[2], x1 = 1
Conditions	refractive index
293.15 K	1.4475
298.15 K	1.4467
303.15 K	1.4459
308.15 K	1.4451
313.15 K	1.4442
318.15 K	1.4433

NC=O [formamide] + CCC(C)O
refractive index, [2]
Conditions	x1 = 0.1043	x1 = 0.2043	x1 = 0.3056	x1 = 0.4083	x1 = 0.5093	x1 = 0.6063	x1 = 0.7068	x1 = 0.8042	x1 = 0.9024	x1 = 1
293.15 K	1.3993	1.4017	1.4045	1.4079	1.4119	1.4165	1.4222	1.4289	1.4372	1.4475
298.15 K	1.3973	1.3996	1.4025	1.4061	1.4102	1.4149	1.4207	1.4276	1.4361	1.4467
303.15 K	1.3953	1.3977	1.4007	1.4043	1.4085	1.4133	1.4193	1.4263	1.435	1.4459
308.15 K	1.3933	1.3958	1.3989	1.4026	1.4068	1.4118	1.4179	1.4251	1.434	1.4451
313.15 K	1.3913	1.3939	1.397	1.4008	1.4051	1.4102	1.4164	1.4237	1.4328	1.4442
318.15 K	1.3893	1.3919	1.3951	1.399	1.4034	1.4086	1.4149	1.4224	1.4317	1.4433

NC=O [formamide] + CCCCO
refractive index, [2]
Conditions	x1 = 0.1093	x1 = 0.2057	x1 = 0.3138	x1 = 0.4104	x1 = 0.5115	x1 = 0.6124	x1 = 0.7081	x1 = 0.8123	x1 = 0.9086	x1 = 1
293.15 K	1.4023	1.4052	1.4086	1.4119	1.4158	1.4203	1.4252	1.4316	1.4389	1.4475
298.15 K	1.4003	1.4032	1.4067	1.4101	1.4141	1.4187	1.4238	1.4303	1.4378	1.4467
303.15 K	1.3983	1.4012	1.4048	1.4083	1.4124	1.4171	1.4223	1.429	1.4367	1.4459
308.15 K	1.3963	1.3992	1.4029	1.4065	1.4107	1.4155	1.4208	1.4277	1.4357	1.4451
313.15 K	1.3943	1.3973	1.4011	1.4047	1.409	1.4139	1.4194	1.4264	1.4345	1.4442
318.15 K	1.3923	1.3954	1.3992	1.4029	1.4073	1.4123	1.4179	1.4251	1.4334	1.4433

NC=O [formamide] + OCCCCO
[2], x1 = 1
Conditions	refractive index
293.15 K	1.4475
298.15 K	1.4467
303.15 K	1.4459
308.15 K	1.4451
313.15 K	1.4442
318.15 K	1.4433
